Results taken from patent US20240189442A1, “TARGETING CONJUGATES WITH THERAPEUTIC AGENTS AND OLIGONUCLEOTIDES AND USES THEREOF” (Allygen Group, priority 2021, published 2024).
Non-standard residues stand in square brackets, D forms with d. Primed or numbered codes have the meaning given here. No end group written: not given here. PEG12′ = NH2-(PEG)12 moiety

Legend:
[1] = biological target: Tissue-type Plasminogen Activator (tPA) (Homo sapiens, UniProt P00750); test: tPA digestion of substrate peptides measured by FRET; format: biochemical
Procedure: (§1) All peptide solutions were finally diluted to 50 μL with 20 mM PBS at pH=7.4.

[2] = biological target: Urokinase-type Plasminogen Activator (uPA) (Homo sapiens, UniProt P00749); test: uPA cleavage of substrate peptides measured by FRET; format: biochemical; settings: uPA 7.5 × 10^−3 mg/mL, peptide 0.5 mg/mL, PBS pH=7.4
Procedure: as §1

[3] = Stability of SN-38 (lactone / ring-opened form) at different pH; format: physicochemical
Procedure: A hydrochloric acid solution with a pH of 4 and a sodium hydroxide solution with a pH of 10 were prepared respectively. 5 mg of SN-38 was dissolved in 5 mL of acetonitrile. The stability of SN-38 in a solution of changing pH (pH=10 to pH=4) was measured by shaking SN-38 at room temperature under pH=10 for 10 min, then adjusting the pH back to 4 and shake at room temperature for 10 min before sampling. SN-38 was then incubated at room temperature overnight (16 h) on a shaker and assayed afterwards.

HCT15-hPDL1 cells = test: In vitro cytotoxicity study, CellTiter-Glo Luminescent Cell Viability Assay; format: cell-based, Human; settings: 5 days exposure
Procedure: The cell line was named as HCT15-hPDL1. Cells were cultured at 37° C. with 5% C02 using RPMI1640 medium supplemented with 10% FBS, plus 1 μg/ml of puromycin.
The in vitro anti-tumor activity was determined by CellTiter-Glo® Luminescent Cell Viability Assay (Promega) according to the manufacturer's instructions. Briefly, cells were seeded into 96-well plates at 2×10^3 cells per well in 100 μL complete medium, then incubated at 37° C. with 5% CO2 overnight. Untreated cells served as control. ADCs, antibodies, or payloads in 100 μL medium were added in duplicate at various concentrations with a 2-fold dilution series starting with concentrations of 1 uM, respectively. Cells were exposed to test articles for 5 days. […]. The cell survival rate (%) was calculated using the following formula: sample/control×100%.

[4] = biological target: T1, TLR9 (HEK-Blue hTLR9-hPDL1 cells) (Homo sapiens, UniProt Q9NR96); test: In vitro TLR9 activation study, SEAP reporter; format: cell-based; settings: 18 hr incubation, OD 655 nm; read-out: HEK-Blue hTLR9-hPDL1 cell EC50
T1 construct: expressed in transfected cells; host or cells: HEK-Blue hTLR9-hPDL1 (HEK-Blue hTLR9 cells carrying lentiviral human PD-L1, NM_014143)
T1 sequence (Q9NR96 26-1032): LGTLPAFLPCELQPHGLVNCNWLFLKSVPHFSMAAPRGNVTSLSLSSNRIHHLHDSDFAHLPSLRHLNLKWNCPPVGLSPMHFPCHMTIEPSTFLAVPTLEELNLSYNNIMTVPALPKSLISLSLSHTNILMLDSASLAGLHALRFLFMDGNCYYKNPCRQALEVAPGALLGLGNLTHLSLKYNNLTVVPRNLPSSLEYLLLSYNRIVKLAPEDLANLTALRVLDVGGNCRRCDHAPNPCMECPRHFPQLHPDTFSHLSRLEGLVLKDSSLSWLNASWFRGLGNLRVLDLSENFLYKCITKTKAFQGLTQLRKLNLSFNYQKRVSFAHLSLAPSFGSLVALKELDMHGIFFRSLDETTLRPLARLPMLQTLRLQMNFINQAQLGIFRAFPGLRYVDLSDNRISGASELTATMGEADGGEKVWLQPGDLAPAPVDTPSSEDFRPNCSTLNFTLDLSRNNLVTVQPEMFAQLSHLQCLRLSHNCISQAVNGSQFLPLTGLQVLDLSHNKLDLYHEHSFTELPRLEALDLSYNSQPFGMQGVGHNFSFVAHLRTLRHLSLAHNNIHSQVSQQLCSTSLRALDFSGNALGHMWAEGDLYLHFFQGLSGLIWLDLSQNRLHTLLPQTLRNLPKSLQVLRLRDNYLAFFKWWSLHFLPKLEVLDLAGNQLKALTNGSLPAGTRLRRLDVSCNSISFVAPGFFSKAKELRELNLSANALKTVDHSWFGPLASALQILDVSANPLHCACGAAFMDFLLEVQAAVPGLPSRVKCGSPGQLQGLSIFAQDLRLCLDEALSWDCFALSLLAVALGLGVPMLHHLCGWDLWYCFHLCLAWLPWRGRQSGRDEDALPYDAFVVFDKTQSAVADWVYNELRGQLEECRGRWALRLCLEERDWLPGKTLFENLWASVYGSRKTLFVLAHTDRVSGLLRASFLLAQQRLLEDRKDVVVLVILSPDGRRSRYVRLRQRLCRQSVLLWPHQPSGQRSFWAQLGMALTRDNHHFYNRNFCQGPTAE
Description: Data were normalized with untreated cells as zero.

CathepsinB = CathepsinB (Homo sapiens, UniProt P07858); test: Digestion of the drug-linkers by CathepsinB; format: biochemical; settings: 125 nM enzyme, 62.5 μM drug-linker, pH 5.5, 37° C., 3 hours
Procedure: To simulate the release of drug under physiological conditions, the drug-linkers were subjected to cleavage by CathepsinB, after which an elimination reaction occurred and unmodified drug was released.
Lyophilized CathepsinB enzyme powder was dissolved in 130 μL of pure water, and divided into 13 tubes of 10 μL each. At this time, the concentration of each tube was 0.15 mg/ml (4.15 μM). Activation buffer (20 mM sodium acetate, 30 mM DTT, 15 mM EDTA, pH 5.5) was then added to a tube of enzyme to activate the enzyme for 1 hour at room temperature. The activated enzyme was diluted to 125 nM with enzyme digestion buffer (25 mM sodium acetate, 1 mM EDTA, pH 5.5). Drug-linkers were added to the activated enzyme to a final concentration of 62.5 μM, and incubated at 37° C. for 3 hours.

[5] = Stability of Compound of Formula (1) and (2) in buffer; format: physicochemical
Procedure: Preparation of 20 mM phosphate buffer with pH=7.4 (in 1 L): 8.0 g sodium chloride, 0.2 g potassium chloride, 7.3 g disodium hydrogen phosphate dodecahydrate, and 0.48 g potassium dihydrogen phosphate was dissolved in water and dilute to 1 L at pH 7.4.
The buffer was adjusted to pH 9.0, 7.0 and 5.0 with saturated phosphoric acid solution and sodium hydroxide solution. […] The solution pH was adjusted back to 5, and shaken overnight at room temperature (16 h) before testing.

[6] = Stability of Compound of Formula (1) and (2) in plasma; format: in vitro ADME; settings: pH 7.4, 0.5 mg/mL
Procedure: Preparation of protein precipitation solution: 1 g NaCl was added to 3 mL methanol and 5 mL acetonitrile, stirred for 1 h, and then allowed to stand at room temperature for 1 h before use.
200 μL protein precipitation solution was then added to the reaction solution and centrifuged at 8000 g for 10 min. The supernatant was collected for analysis.

antibody Ab2B = test: Biacore affinities between TBP and antibody; format: binding
Procedure: Anti-human Fab was ligated to Biacore chips at pH 4.5. […] TBPs were flowed through the chip as analytes at 30 μL/min. 10 mM glycine at pH 1.5 was used for regeneration of the chip. Conditions were optimized as needed.

[7] = alkaline conditions for 10 minutes, then acidic conditions before testing
[8] = pH 10 to pH 4, after incubation overnight (16 h)

Tissue-type Plasminogen Activator (tPA), sequence (P00750 36-562, species assumed): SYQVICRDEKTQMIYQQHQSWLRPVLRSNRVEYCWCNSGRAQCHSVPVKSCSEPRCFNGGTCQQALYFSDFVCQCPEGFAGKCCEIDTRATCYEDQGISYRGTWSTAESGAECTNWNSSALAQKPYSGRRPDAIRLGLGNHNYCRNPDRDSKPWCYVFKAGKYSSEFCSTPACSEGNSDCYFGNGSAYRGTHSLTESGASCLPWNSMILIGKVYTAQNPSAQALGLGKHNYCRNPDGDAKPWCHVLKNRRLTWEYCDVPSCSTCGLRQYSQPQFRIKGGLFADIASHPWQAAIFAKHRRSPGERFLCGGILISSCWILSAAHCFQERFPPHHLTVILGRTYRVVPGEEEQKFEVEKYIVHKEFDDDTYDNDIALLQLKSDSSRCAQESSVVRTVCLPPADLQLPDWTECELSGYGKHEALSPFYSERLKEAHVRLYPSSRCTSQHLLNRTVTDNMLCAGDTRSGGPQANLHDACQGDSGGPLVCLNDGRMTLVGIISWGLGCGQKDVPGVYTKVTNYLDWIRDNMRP
antibody Ab2B, sequence (as listed by the source): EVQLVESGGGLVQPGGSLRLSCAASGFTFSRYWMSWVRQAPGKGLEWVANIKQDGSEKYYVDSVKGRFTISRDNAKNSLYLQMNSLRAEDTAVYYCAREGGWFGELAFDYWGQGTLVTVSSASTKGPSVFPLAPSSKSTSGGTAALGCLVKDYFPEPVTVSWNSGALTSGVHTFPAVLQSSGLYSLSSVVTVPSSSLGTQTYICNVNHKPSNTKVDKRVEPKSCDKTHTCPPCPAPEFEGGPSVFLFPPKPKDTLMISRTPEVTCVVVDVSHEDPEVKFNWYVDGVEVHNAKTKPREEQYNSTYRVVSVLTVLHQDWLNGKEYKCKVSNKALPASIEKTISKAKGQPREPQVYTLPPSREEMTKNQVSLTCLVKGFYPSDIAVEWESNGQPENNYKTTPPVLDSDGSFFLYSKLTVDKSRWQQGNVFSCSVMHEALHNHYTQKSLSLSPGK
antibody Ab2B, sequence (as listed by the source partner): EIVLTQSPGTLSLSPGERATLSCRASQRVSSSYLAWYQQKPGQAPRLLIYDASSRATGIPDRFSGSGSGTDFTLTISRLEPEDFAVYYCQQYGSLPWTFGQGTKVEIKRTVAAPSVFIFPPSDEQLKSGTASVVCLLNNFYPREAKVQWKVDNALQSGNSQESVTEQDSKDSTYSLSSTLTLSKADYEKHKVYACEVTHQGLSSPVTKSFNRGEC

For SGRSA [SEQ ID NO: 51], the “tPA digestion (in words)” value ([1]; tPA 7.5×10^−3 mg/mL) was “mildly digested”, the “tPA digestion (in words)” value ([1]; tPA […]10^−2 mg/mL) was “digested” and the “Fluorescence Intensity Time to Reach Plateau” value (“Fluorescence Intensity Time” for short) [2] was 1.8 h.
For “LGGSGRNAQVRLE [SEQ ID NO: 53, uPA substrate peptide]”, the “Fluorescence Intensity Time” value [2] was 1.6 h.
With “LGGSGRSANAILE [SEQ ID NO: 52, uPA substrate peptide]” the “tPA digestion (in words)” value ([1]; tPA 7.5×10^−3 mg/mL) was “mildly digested”, the “tPA digestion (in words)” value ([1]; tPA […]10^−2 mg/mL) was “digested” and the “Fluorescence Intensity Time” value [2] was 1.4 h.
In the case of `CCc1c2c(nc3ccc(O)cc13)-c1cc3c(c(=O)n1C2)COC(=O)[C@]3(O)CC` [SN38, 7-ethyl-10-hydroxy-20(S)-camptothecin], the Present as lactone ([3]; acidic conditions (pH 4)) is reported as 94%, the “Present as lactone ring-opened form” value ([3]; alkaline conditions (pH 10)) is reported as 92% and the Lactone ring-opening products [3, 7] is reported as 42%. The “Present in the form of lactone” value [3, 7] was 56%, the Lactone ring-opening products [3, 8] was 13% and the “Present in the form of lactone” value [3, 8] was 86%. It also gave an IC50 (HCT15-hPDL1 cells; Homo sapiens, 120 h) of 11.2 nM.
With “GSGRNAQV [SEQ ID NO: 54, uPA substrate peptide]” the “tPA digestion (in words)” value ([1]; tPA […]10^−2 mg/mL) was “digested” and the “Fluorescence Intensity Time” value [2] was 1.4 h.
Work on “CpGB: CpG ODN CpGB, used as positive control and as component of Ab3A ADOC (DNA TCGAACGTTCGAACGTTCGAACGTTCGAAT; DNA, all phosphorothioate, methylation of C not given here)” yielded an EC50 [4] of 11500 nM.
In the case of “Glycine3-amido-PEG8-VC-PAB-DMAE-phenol linked SN38 [Compound of Formula (1)]”, the “CathepsinB digestion (in words)” value (CathepsinB) is reported as “effectively digested”, the “Product released on CathepsinB digestion” value (CathepsinB) is reported as “release SN38” and the IC50 (HCT15-hPDL1 cells) is reported as greater than 300 nM. For the same compound, the “Present in the form of lactones” value ([5]; acidic conditions (pH 5 buffer)) was 88%, the “Present as lactones in the form of ring opening” value ([5]; alkaline conditions (pH 9 buffer)) was 92% and the “Present in the form of lactones” value ([5]; alkaline conditions for 10 minutes, then acidic conditions (pH 9 to 5)) was 98%. The “Stability in plasma (in words)” value [6] was “partially hydrolyzed in plasma”.
In the case of LSGRSDNH [SEQ ID NO: 50], the “Fluorescence Intensity Time” value [2] is reported as 1.7 h.
In the case of “SEQ ID NO: 151 ([PEG12′]RSQSRSRYYRQRQRSRRRRRRS)”, the “Binding to Ab2B (in words)” value (antibody Ab2B) is reported as “did not bind to Ab2B”.
In the case of `CCc1c2c(nc3ccc(O)cc13)-c1cc3c(c(=O)n1C2)COC(=O)[C@@]3(CC)OC(=O)N(C)CCN(C)C(=O)OCc1ccc(NC(=O)[C@H](CCCNC(N)=O)NC(=O)[C@@H](NC(=O)CCOCCOCCOCCOCCOCCOCCOCCOCCCNC(=O)CNC(=O)CNC(=O)CN)C(C)C)cc1` [Compound of Formula (2), Glycine3-amido-PEG8-VC-PAB-DMAE-α-hydroxy lactone linked SN38], the “CathepsinB digestion (in words)” value (CathepsinB) is reported as “effectively digested”, the “Product released on CathepsinB digestion” value (CathepsinB) is reported as “release SN38 derivatives” and the IC50 (HCT15-hPDL1 cells; Homo sapiens, 120 h) is reported as 38.1 nM. For the same compound, the “Present in the form of lactones in buffer” value ([5]; buffer, less affected by pH) was 98% and the “Stability in plasma (in words)” value [6] was “mainly in the form of lactones in the plasma”.
